The source made the active and inactive calls. The rule behind the calls is not given here.
Tests used:
[1] = system: Panel NCI-60 (60 carcinoma cell lines); assay: Cytotoxicity against human NCI60 cells at 10 uM after 48 hrs by sulforhodamine B assay; assay type: functional, cell-based
HONE1 cell line = assay: Growth inhibition of human HONE1 cells at 50 ug/ml relative to control; assay type: functional; details: read-out: GI
NUGC = assay: Growth inhibition of human NUGC cells at 50 ug/ml relative to control; assay type: functional; details: read-out: GI

`O=c1occc2c1cnc1ccccc12` was tested, and the Activity [1] was “inactive”.

`Cn1ccc2c(cnc3ccccc32)c1=O` was tested, and the Activity [1] was “inactive”.

For `O=c1[nH]ccc2c1cnc1ccccc12`, the Activity [1] was “inactive”, the inhibition of growth at 50 µg/mL (HONE1 cell line) was 62% and the inhibition of growth at 50 µg/mL (NUGC) was 63%.

From ChEMBL document CHEMBL4145655, “Confirmation of the Revised Structure of Samoquasine A and a Proposed Structural Revision of Cherimoline” (2018)
